Assay results from US20180087079A1, “METHODS OF USING CELL-CYCLE INHIBITORS TO MODULATE ONE OR MORE PROPERTIES OF A CELL CULTURE” (AMGEN INC., priority 2013, published 2018).

Columns and labels:
[1] = system: transfected CHO cells expressing recombinant human monoclonal antibody (cell line 2); assay: 24-deep well culture, cell line 2: VCD, viability, titer, qP; format: cell-based, Chinese hamster
Protocol: Transfected CHO cells expressing a recombinant human monoclonal antibody (mAb) are cultured in 24-deep well plates with seeding density at 1×10^7/mL for five days. At certain time periods, samples of the cultures are taken and evaluated for viable cell density (VCD; expressed in 10^6 cells/mL); percent viability (as determined by trypan blue exclusion); titer of recombinant protein (expressed in grams of protein per liter of culture, or g/L, as determined by Protein A affinity HPLC); qP, or specific productivity (expressed in picograms of recombinant protein per cell per day, or pg/c/d), the presence or absence of high molecular weight substances (usually an indicator of protein aggregation; expressed as % of the total protein); and the relative percentage of Mannose 5, a major intermediate glyco-form that attaches to N297 of the mAb. N-linked glycosylation has an impact on the tertiary structure of the antibody and may affect Fc mediated antibody effector functions. The majority of the human Fc glycans are complex biantennary structures with galactose as the prevalent terminal sugar. Immature glyco-forms, such as high-mannose glycol-forms (Man5-9), are of concern due to potential higher plasma clearance rate (as compared to the clearance rate of complex glycan linked mAbs).
Compounds are further evaluated essentially as described in Example 2 herein. Briefly, transfected CHO cells expressing recombinant human monoclonal antibody (mAb; two different cell lines expressing two different mAb, referred to as cell line 1 and cell line 2) are cultured in 24-deep well plates in the presence or absence of the compounds. At specified time points, samples of the cultures are taken and evaluated for viable cell density (VCD; expressed in 10^6 cells/mL); percent viability (as determined by any method known in the art); titer of recombinant protein (expressed in grams of protein per liter of culture, or g/L, as determined by Protein A affinity HPLC); qP, or specific productivity (expressed in picograms of recombinant protein per cell per day, or pg/c/d). Additional parameters measure include the presence or absence of high molecular weight substances (usually an indicator of protein aggregation; expressed as % of the total protein); and the relative percentage of Mannose 5. For comparison purposes, Compounds A and B, which had been previously tested, were tested again.

CDK4/Cyclin D1 = molecular target: T1, CDK4/Cyclin D1 (Homo sapiens, UniProt P11802); assay: CDK4 filtration kinase assay; format: biochemical; settings: CDK4/Cyclin D1, Rb fragment substrate, [33P]-ATP
T1 construct: purchased Cell Signaling Technology
Protocol: The CDK4 inhibitory activity of the cell cycle inhibitors was determined with a filtration kinase assay. The compounds, kinase and substrate diluted in the kinase buffer (20 mM Tris, pH7.4, 50 mM NaCl, 1 mM DTT, 0.1% BSA) were sequentially added to a 96-well Multiscreen HTS filtration plate (Millipore). The final 100 μL reaction mixture in each well contained 0.3 μg of CDK4/Cyclin D1 (Cell Signaling Technology), 1 μg of Rb fragment (aa773-928, Millipore) for the CDK4 assay and 1 μCi of [^33P]-ATP. The mixture was incubated at room temperature for 1 hour. The proteins in the reaction were then precipitated and washed with cold TCA solution using an aspiration/filtration vacuum system. The plates were dried at room temperature, and the retained radioactivity was measured by scintillation counting. IC50 values of the compounds in the above assays were determined by non-linear regression analysis using Prism (GraphPad Software).

Colo205 = assay: [14C]-thymidine incorporation cell proliferation inhibition assay; format: cell-based; settings: Homo sapiens, COLO 205, 72 hour incubation
Protocol: The cell proliferation inhibition potency of the cell cycle inhibitors was determined by using a [^14C]-thymidine incorporation assay. Exponentially growing cells (Colo205) were seeded in a 96-well Cytostar T plate (GE Healthcare Biosciences) at a density of 5×10^3 cells/well and incubated overnight. Serially diluted compounds and 0.1 μCi of [^14C]-thymidine (GE Healthcare Biosciences) were added to each well on the following day. After 72 hour incubation, isotope incorporation was determined with a β plate counter (Wallac). IC50 values of the compounds in the above assays were determined by non-linear regression analysis using Prism (GraphPad Software).

CHO cells = assay: Initial dosage and time course study: cell viability and growth arrest (Table 4); format: cell-based, Chinese hamster
Protocol: In one set of experiments, a cell cycle analysis was performed for various cell cycle inhibitory compounds. Briefly, CHO cells are grown in 24 deep well plate (for example, Corning Axygen deep well plates; Corning, Amsterdam, The Netherlands), using standard cell-culture medium, under conditions promoting growth of the cells (for example 36 degreesC, 5% CO2) in the presence of various cell cycle inhibitors. Samples are collected at various time points, and cell cycle profiles are obtained by propidium iodide (PI) staining followed by fluorescence-activated cell sorting (FACS) analysis. Results for compounds 6-acetyl-8-cyclopentyl-5-methyl-2-((5-(1-piperazinyl)-2-pyridinyl)amino)pyrido[2,3-d][…] (Compound A) and N-(6-(4-(dimethylamino)-1-piperidinyl)-3-pyridazinyl)-9-(trans-4-methylcyclohexyl)-9H-pyrido[4′,3′,:4,5]pyrrolo[2,3-d]pyrimidin-2-amine (Compound B) are shown in Table 1 below.
Various compounds were tested in an initial dosage and time course study to ascertain their effects on cell viability and growth phase arrest substantially as described previously in Example 1. Compounds were evaluated for effect, or lack thereof, on viability, as well as their ability to cause growth arrest. Compounds that maintained at least 80% cell viability at one or more concentrations for the five day duration of this assay were regarded as having relatively little or no cell cytotoxicity.

[2] = system: mammalian cells such as CHO cells; assay: Predicted specific productivity of recombinant protein for Compound M; format: cell-based, Chinese hamster; settings: predicted from Table 4, structural similarity, CDK4 assay and cell proliferation assay

T1 sequence (P11802 whole entry, species assumed, the tested form may be a part): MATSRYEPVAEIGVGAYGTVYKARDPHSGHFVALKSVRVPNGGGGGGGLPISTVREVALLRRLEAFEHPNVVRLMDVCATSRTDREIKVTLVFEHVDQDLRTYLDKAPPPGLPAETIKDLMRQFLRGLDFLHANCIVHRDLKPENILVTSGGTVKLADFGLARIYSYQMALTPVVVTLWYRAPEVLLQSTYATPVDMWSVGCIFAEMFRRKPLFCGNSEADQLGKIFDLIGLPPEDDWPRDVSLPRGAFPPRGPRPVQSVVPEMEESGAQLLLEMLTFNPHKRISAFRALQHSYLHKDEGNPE
T1 sequence (P24385 whole entry partner, species assumed, the tested form may be a part): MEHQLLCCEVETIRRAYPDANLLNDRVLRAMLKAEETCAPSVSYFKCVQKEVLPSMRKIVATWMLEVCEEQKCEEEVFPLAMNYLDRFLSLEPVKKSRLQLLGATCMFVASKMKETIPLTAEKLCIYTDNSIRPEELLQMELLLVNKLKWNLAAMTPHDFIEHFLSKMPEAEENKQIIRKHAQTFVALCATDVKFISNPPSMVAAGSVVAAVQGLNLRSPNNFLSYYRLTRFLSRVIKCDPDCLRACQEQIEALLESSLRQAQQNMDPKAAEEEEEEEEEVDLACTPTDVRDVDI

CN(C)C1CCN(c2ccc(Nc3ncc4c(n3)C3(C=CC(C)(C)CC3)c3cnccc3-4)nc2)CC1 (stereo not drawn) [Compound L, N-(5-(4-(dimethylamino)piperidin-1-yl)pyridin-2-yl)-4,4-dimethylspiro[cyclohex[2]ene-1,9′-pyrido[4′,3′:3,4]cyclopenta[1,2-d]pyrimidin]-2′-amine]
Titer ([1]; 1.2 microM, D 1): 0.28 g/L | VCD ([1]; 1.2 microM, D 1): 11.76 e6/mL | Viability ([1]; 1.2 microM, D 1): 94.88% | qP ([1]; 1.2 microM, D 1): 23.81 pg/c/d | Titer ([1]; 1.2 microM, D 2): 0.49 g/L | VCD ([1]; 1.2 microM, D 2): 13.63 e6/mL | Viability ([1]; 1.2 microM, D 2): 92.63% | qP ([1]; 1.2 microM, D 2): 35.94 pg/c/d | Titer ([1]; 1.2 microM, D 3): 0.58 g/L | VCD ([1]; 1.2 microM, D 3): 18.56 e6/mL | Viability ([1]; 1.2 microM, D 3): 92.09% | qP ([1]; 1.2 microM, D 3): 31.42 pg/c/d | Titer ([1]; 1.2 microM, D 4): 0.70 g/L | VCD ([1]; 1.2 microM, D 4): 26.40 e6/mL | Viability ([1]; 1.2 microM, D 4): 91.17% | qP ([1]; 1.2 microM, D 4): 26.64 pg/c/d | Titer ([1]; 2.4 microM, D 1): 0.28 g/L | VCD ([1]; 2.4 microM, D 1): 11.43 e6/mL | Viability ([1]; 2.4 microM, D 1): 94.24% | qP ([1]; 2.4 microM, D 1): 24.20 pg/c/d | Titer ([1]; 2.4 microM, D 2): 0.47 g/L | VCD ([1]; 2.4 microM, D 2): 12.95 e6/mL | Viability ([1]; 2.4 microM, D 2): 91.47% | qP ([1]; 2.4 microM, D 2): 36.29 pg/c/d | Titer ([1]; 2.4 microM, D 3): 0.60 g/L | VCD ([1]; 2.4 microM, D 3): 16.19 e6/mL | Viability ([1]; 2.4 microM, D 3): 90.68% | qP ([1]; 2.4 microM, D 3): 37.05 pg/c/d | Titer ([1]; 2.4 microM, D 4): 0.76 g/L | VCD ([1]; 2.4 microM, D 4): 24.27 e6/mL | Viability ([1]; 2.4 microM, D 4): 91.43% | qP ([1]; 2.4 microM, D 4): 31.18 pg/c/d | IC50 (CDK4/Cyclin D1): 1.4 nM | IC50 (Colo205): 23.5 nM

CC(=O)c1c(C)c2cnc(Nc3ccc(N4CCNCC4)nn3)nc2n(C2CCCC2)c1=O [Compound M, 6-acetyl-8-cyclopentyl-5-methyl-2-((6-(piperazin-1-yl)pyridazin-3-yl)amino)pyrido[2,3-d]pyrimidin-7(8H)-one]
VCD (CHO cells; 2.5 microM, D 1): 0.4656 e6/mL | VCD (CHO cells; 2.5 microM, D 2): 0.6879 e6/mL | Viability (CHO cells; 2.5 microM, D 2): 97.90% | VCD (CHO cells; 2.5 microM, D 3): 1.1916 e6/mL | Viability (CHO cells; 2.5 microM, D 3): 97.65% | VCD (CHO cells; 2.5 microM, D 4): 2.1883 e6/mL | Viability (CHO cells; 2.5 microM, D 4): 96.47% | VCD (CHO cells; 5 microM, D 1): 0.4129 e6/mL | VCD (CHO cells; 5 microM, D 2): 0.5439 e6/mL | Viability (CHO cells; 5 microM, D 2): 97.90% | VCD (CHO cells; 5 microM, D 3): 0.8760 e6/mL | Viability (CHO cells; 5 microM, D 3): 97.67% | VCD (CHO cells; 5 microM, D 4): 1.4543 e6/mL | Viability (CHO cells; 5 microM, D 4): 95.90% | VCD (CHO cells; 10 microM, D 1): 0.4204 e6/mL | VCD (CHO cells; 10 microM, D 2): 0.4984 e6/mL | Viability (CHO cells; 10 microM, D 2): 97.90% | VCD (CHO cells; 10 microM, D 3): 0.7601 e6/mL | Viability (CHO cells; 10 microM, D 3): 97.06% | VCD (CHO cells; 10 microM, D 4): 1.2297 e6/mL | Viability (CHO cells; 10 microM, D 4): 95.85% | VCD (CHO cells; 20 microM, D 1): 0.3915 e6/mL | VCD (CHO cells; 20 microM, D 2): 0.4101 e6/mL | Viability (CHO cells; 20 microM, D 2): 97.90% | VCD (CHO cells; 20 microM, D 3): 0.5348 e6/mL | Viability (CHO cells; 20 microM, D 3): 97.31% | VCD (CHO cells; 20 microM, D 4): 0.8023 e6/mL | Viability (CHO cells; 20 microM, D 4): 96.04% | cytotoxicity and growth arrest properties (CHO cells; compared with Compound A): very similar, at similar concentrations, to the properties of Compound A | IC50 (CDK4/Cyclin D1): 15 nM | IC50 (Colo205): 92 nM | increase in specific productivity (qP) of recombinant protein [2]: > 200%
